Experimental findings from paper PMC12473246, “An Improved Ratiometric FRET Biosensor with Higher Affinity for Extracellular ATP” (Sensors (Basel, Switzerland), 2025) are described below.

Like-named read-outs stand apart in the source and are kept apart here.

The target in one assay is T1, ECATS2 (DM-20) (Bacillus sp. PS3, UniProt A0A0M5MQR7, R103A/R115A).
T1 construct: gene uncC; double-mutant epsilon subunit between mseCFP and mVenus, 20 nm alpha-helical ER/K linker to PDGFR transmembrane domain
As to the kind of experiment: FRET ratio live-cell imaging dose response. Type of assay: cell-based.

The target of the next assay is T2, ecATeam3.10 (Bacillus sp. PS3, UniProt A0A0M5MQR7).
T2 construct: gene uncC; expressed on Neuro2A or HEK293 cells
The experiment in a line: FRET ratio live-cell imaging dose response. Type of assay: cell-based. The conditions noted are these: read-out: apparent dissociation constant.

T1 sequence (A0A0M5MQR7 1-133, stated change not applied): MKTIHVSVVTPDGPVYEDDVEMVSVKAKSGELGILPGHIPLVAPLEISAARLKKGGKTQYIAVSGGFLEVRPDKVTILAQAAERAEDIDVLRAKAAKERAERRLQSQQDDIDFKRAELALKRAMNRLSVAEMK
T2 sequence (A0A0M5MQR7 1-133): as the sequence (A0A0M5MQR7 1-133, stated change not applied) above

Take `Nc1ncnc2c1ncn2[C@@H]1O[C@H](COP(=O)(O)OP(=O)(O)O)[C@@H](O)[C@H]1O` [ADP]: at ECATS2 (DM-20) (read-out: apparent ADP dissociation constant), the Kd is about 100 µM.
Take `Nc1ncnc2c1ncn2[C@@H]1O[C@H](COP(=O)(O)OP(=O)(O)OP(=O)(O)O)[C@@H](O)[C@H]1O` [ATP]: the values for the Kd at ECATS2 (DM-20) (read-out: apparent dissociation constant) and on ecATeam3.10 were 3.7 ± 0.6 µM and 12 ± 5 µM, respectively.
